# Patent EP0044443A1, “Cycloalkano-thiazolyloxamidic-acid derivatives, process for their preparation and pharmaceutical compositions containing them” (BASF Aktiengesellschaft, priority 1980, dated 1982)
# Experiments:
# [1] = Acute toxicity, mouse, intraperitoneal; conditions: in vivo, ip, read-out: LD 50 Maus i.p.
# From the text: (§1) Außer der antiallergischen Wirkung wurde die akute Toxizität an Gruppen von je 2 NMRI-Mäusen, Gewicht 20 bis 26 g, bei intraperitonealer Applikation und an je 2 Sprangue--Dawley-Ratten, Gewicht 120 bis 150 g, bei oraler Applikation ermittelt. Die Bestimmung der LD 50 erfolgte an Gruppen von je 10 NMRI-Mäusen, Gewicht 20 bis 26 g,nach intraperitonealer Applikation. Die Nachbeobachtungszeit betrug 14 Tage.
# [2] = Acute toxicity, rat, oral; conditions: in vivo, read-out: LD 50 Ratte p.o.
# From the text: as §1
# [3] = test system: passiven cutanen Anaphylaxie (PCA); assay: Passive cutaneous anaphylaxis (PCA) in rats sensitised with ovalbumin antiserum; assay type: in vivo, Ratte; conditions: for ED50: Rattus norvegicus, dose reducing diameter of dye spots by 50 % vs untreated controls, read-out: Hemmung der PCA Ratte ED 50 %; for ED50 / Hemmung der PCA Ratte R.W. (Relative Wirksamkeit) / mal wirksamer als die Vergleichsverbindung V1: oral administration; for inhibition in vivo at 1 mg/kg: ip, read-out: % Hemmung X ± SX; for inhibition in vivo at 1 mg/kg / % Hemmung X ± SX: intraperitoneal, 1 mg/kg test substance, mean ± SX; for Hemmung der PCA Ratte R.W. (Relative Wirksamkeit): relative to V1 = 1,00
# Protocol: Die antiallergische Wirkung wurde an Ratten getestet. Zur ' Prüfung wurde das Modell der passiven cutanen Anaphylaxie (PCA) verwendet.
# Narkotisierte männliche Ratten (100 bis 140 g) werden durch intradermale Injektion (rasierte Rückenhaut) von 0,1 ml eines Ovalbumin-Antiserums sensibilisiert. Nach einer Sensibilisierungsperiode von ca. 48 Stunden erfolgt die Behandlung (intraperitoneale bzw. orale Applikation) mit unterschiedlichen Dosierungen (10 Tiere/Dosis) der Prüfsubstanzen. 15 bis 20 Minuten nach der Behandlung wird eine Antigen/Evansblau-Hischung (10 mg/kg Ovalbumin in 2 %iger Evansblau-Lösung) den Versuchstieren intravenös injiziert. 30 Minuten später werden die Tiere getötet, die Rückenhaut abgezogen und auf der inneren Oberfläche der Durchmesser der kreisförmigen Blaufärbung gemessen. Die Größe der Farbflecke unbehandelter Kontrolltiere ist standardisierbar. Antiallergisch wirksame Substanzen verkleinern dosisabhängig den Durchmesser der Farbflecke. Als ED 50 % wird die Dosis angegeben die im Vergleich zu medikamentös unbehandelten Kontrolltieren den Durchmesser der Farbflecke um 50 % herabsetzt.
# [4] = Water solubility (remark in synthesis example); assay type: physicochemical
# [5] = NMRI mice, intraperitoneal, 14 days observation
# [6] = Sprague-Dawley rats, oral, 14 days observation
Molecule,"LD50 at 336 h [2, 6] [mg/kg]",ED50 [3] [mg/kg],inhibition in vivo at 1 mg/kg ([3]; PCA rat) [%],Hemmung der PCA Ratte R.W. (Relative Wirksamkeit) [3],further results
"CCOC(=O)C(=O)Nc1nc2c(s1)CCC2 [Beispiel 1, N-(Cyclopentano[1,2-d]thiazol-2-yl)-oxamidsäureethylester]",> 2150,1.59,25 ± 4.7,"5,40","LD50 at 336 h [1, 5]: ~464 mg/kg"
"CCOC(=O)C(=O)Nc1nc2c(s1)CCCC2 [Beispiel 2, N-(Cyclohexano[1,2-d]thiazol-2-yl)-oxamidsäureethylester]",–,–,61 ± 8.8,"11,90",LD50 at 336 h [1]: 422 mg/kg; LD50 at 336 h ([2]; po): > 2150 mg/kg; mal wirksamer als die Vergleichsverbindung V1 ([3]; PCA rat): 11.9
"CCOC(=O)C(=O)Nc1nc2c(s1)C(C)(C)CC(C)(C)C2 [Beispiel 4, N-(5,5,7,7-Tetramethylcyclohexano[1,2-d]thiazol-2-yl)-oxamidsäureethylester]",–,–,15 ± 3.5,–,–
"CCOC(=O)C(=O)Nc1nc2c(s1)CCCCC2 [Beispiel 5, N-(Cycloheptano[1,2-d]thiazol-2-yl)oxamidsäureethylester]",–,–,34 ± 6,–,–
"O=C(O)C(=O)Nc1nc2c(s1)CCCC2 [Beispiel 6, N-(Cyclohexano[1,2-d]thiazol-2-yl)-oxamidsäure]",–,3.09,63 ± 6.6,"2,78","LD50 at 336 h [1]: ~464 mg/kg; LD50 at 336 h ([2]; po): > 2150 mg/kg; mal wirksamer als die Vergleichsverbindung V1 ([3]; PCA rat): 2,8"
CC(C)(C)OC(=O)C(=O)Nc1nc2c(s1)CCCC2 [Beispiel 7],> 2150,2.35,33 ± 7.9,"3,65",–
"O=C(O)c1cc(=O)c2c(OCC(O)COc3cccc4oc(C(=O)O)cc(=O)c34)cccc2o1 [Cromolyne, reference compound]",> 2150,100,21 ± 3.6,–,"antiallergische Wirkung nach oraler Applikation ([3]; PCA rat, up to 100 mg/kg p.o.): unwirksam"
"CCOC(=O)C(=O)Nc1nc2ccccc2s1 [V1, N-Benzthiazol-2-yl-oxamidsäureethylester, reference compound]",> 2150,8.6,26 ± 6.5,"1,00","LD50 at 336 h [1, 5]: ~464 mg/kg"
"N-(6-tert.-Butylcyclohexano[1,2-d]thiazol-2-yl)-oxamidsäureethylester [Beispiel 3]",–,–,–,–,"% Hemmung X ± SX ([3]; PCA rat): 14 ± 4,1%"
"N-(Cyclohexano[1,2-d]thiazol-2-yl)-oxamidsäure-ethanol- aminsalz [Beispiel 8]",–,–,–,–,"% Hemmung X ± SX ([3]; PCA rat): 73 ± 7,5%; Wasserlöslichkeit [4]: gut wasserlöslichen"
